As usually defined, the IC50 is the concentration at which inhibition is half-maximal. Low readings indicate greater potency, high ones weaker potency.

The values that follow come from ChEMBL document CHEMBL6092147, “Design of inhibitors of SARS-CoV-2 papain-like protease deriving from GRL0617: Structure-activity relationships” (Bioorg Med Chem, 2024).

The nature of the test: Inhibition of SARS-CoV-2 wild type papain-like protease (PLpro) C111S mutant extracted from Escherichia coli using LKGG-AMC as substrate incubated for 60 mins by fluorescence based analysis. Also on record: species or system Severe acute respiratory syndrome coronavirus 2.

Compound `Cc1ccc(NC(=O)NC(N)=O)cc1C(=O)N[C@H](C)c1cccc2ccccc12` registered a concentration for half-maximal inhibition (IC50) of 5.1 µM. The figure for `CCC(=O)Nc1ccc(C)c(C(=O)N[C@H](C)c2cccc3ccccc23)c1` is 6.4 µM.
